# Assay results taken from publication PMC8040040 (ACS Medicinal Chemistry Letters, 2021).
# Entries after “also recorded” stand apart in the source; their conditions may differ.
# How the values were obtained:
# RORγt LBD = target: T1, RORγt LBD (Homo sapiens, UniProt P51449); test: TR-FRET coactivator recruitment assay, dose-response of covalent probes; assay type: biochemical; conditions: TR-FRET dose-response curve plateau
# T1 sequence (P51449 265-518): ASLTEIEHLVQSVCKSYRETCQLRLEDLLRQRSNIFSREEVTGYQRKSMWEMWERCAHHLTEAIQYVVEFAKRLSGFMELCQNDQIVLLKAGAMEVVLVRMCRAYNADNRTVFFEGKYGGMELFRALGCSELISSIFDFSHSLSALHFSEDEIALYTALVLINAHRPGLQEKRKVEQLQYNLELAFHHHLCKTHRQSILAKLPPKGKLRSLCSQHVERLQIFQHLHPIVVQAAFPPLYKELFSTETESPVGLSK
# RORγt Cys320Ala mutant = target: T2, RORγt Cys320Ala mutant (Homo sapiens, UniProt P51449, C320A); test: Ligation to RORγt Cys320Ala mutant, Q-TOF MS; assay type: binding
# T2 sequence (P51449 265-507 C320A): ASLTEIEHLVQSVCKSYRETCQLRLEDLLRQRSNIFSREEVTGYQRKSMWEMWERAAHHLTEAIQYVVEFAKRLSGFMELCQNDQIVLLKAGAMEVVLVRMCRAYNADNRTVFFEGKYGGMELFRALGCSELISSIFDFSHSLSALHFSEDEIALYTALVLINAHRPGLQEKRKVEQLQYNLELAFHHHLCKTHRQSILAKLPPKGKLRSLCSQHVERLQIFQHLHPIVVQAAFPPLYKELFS
# [1] = target: T3, ligated RORγt (covalent orthosteric probe at Cys320) (Homo sapiens, UniProt P51449); assay type: biochemical
# T3 sequence (P51449 265-518): T1 sequence (P51449 265-518)
# PPARγ = target: T4, PPARγ (Homo sapiens, UniProt P37231); test: Ligation; assay type: binding
# T4 sequence (P37231 1-505): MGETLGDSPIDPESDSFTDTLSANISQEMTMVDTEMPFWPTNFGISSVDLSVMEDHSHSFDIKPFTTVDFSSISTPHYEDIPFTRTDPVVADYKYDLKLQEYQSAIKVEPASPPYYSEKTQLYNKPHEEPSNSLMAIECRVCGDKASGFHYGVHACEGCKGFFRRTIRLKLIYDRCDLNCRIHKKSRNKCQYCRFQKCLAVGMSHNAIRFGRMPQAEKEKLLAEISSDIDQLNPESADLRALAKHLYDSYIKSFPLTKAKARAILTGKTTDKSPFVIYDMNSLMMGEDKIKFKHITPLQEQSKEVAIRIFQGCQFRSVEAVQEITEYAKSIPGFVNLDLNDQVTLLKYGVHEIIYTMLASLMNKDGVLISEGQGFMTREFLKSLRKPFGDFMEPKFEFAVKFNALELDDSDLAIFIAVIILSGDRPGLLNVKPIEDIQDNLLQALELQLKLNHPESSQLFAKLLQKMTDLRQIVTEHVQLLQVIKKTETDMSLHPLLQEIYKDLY
SMILES,occlusion of the orthosteric site by the ligated probe [1],Profile (full/partial inverse agonistic character) (RORγt LBD),further results
O=C(Nc1ccccc1)c1cc([N+](=O)[O-])ccc1Cl [Compound 1],occlusion of the orthosteric binding site,,Profile (full/partial inverse agonistic character) (RORγt LBD; listed as 1 GW9662): Full inv. ago.; Profile (full/partial inverse agonistic character) (RORγt LBD; listed as GW9662): full inverse agonist; Ligation to RORγt Cys320Ala mutant (RORγt Cys320Ala mutant): No ligation
CNC(=O)c1cc([N+](=O)[O-])ccc1Cl [Compound 2],,,Ligation to PPARγ (PPARγ): fully ligate
Cc1ccccc1NC(=O)c1cc([N+](=O)[O-])ccc1Cl [Compound 9],Clear occlusion of the orthosteric site,partial inverse agonistic behavior; also recorded: Partial inv. ago,
O=C(Nc1ccsc1)c1cc([N+](=O)[O-])ccc1Cl [Compound 11],,full inverse agonistic behavior; also recorded: Full inv. ago,
